Laboratory results published in patent US20060211671A1, “Estrogen receptors” (priority 2001, published 2006).
Entries after “also recorded” stand apart in the source; their conditions may differ.

Columns and labels:
[1] = test system: orx male rats; conditions: cited from earlier work
[2] = test system: ovariectomized (ovx) mice; assay: Effects of estrogen exposure on gonadal fat in ovariectomized WT, ERKO, BERKO and DERKO mice; format: in vivo; conditions: for gonadal fat mass, WT mice: ovx WT mice
Text: Male double heterozygous (ERα^+/−β^+/−) mice were mated with female double heterozygous (ERα^+/−β^+/−) mice, resulting in ERα^+/+β^+/+ wildtype (WT); ERα^−/−β^+/+=ERKO, ERα^+/+β^−/−=BERKO and ERα^−/−β^−/−=DERKO offsprings (Vidal O et al (2000) Proc Natl Sci USA, 97, 5474). The diet, housing and genetic background was as previously described in Vidal O et al (2000) supra. In the estrogen exposure experiments all mice were ovariectomized. Ovaries were removed after a flank incision and the incisions were closed with metallic clips. Mice were left to recover for four days after ovariectomy before start of experiments. After recovery mice were injected s.c with 2.3 μg/mouse/day of 17β-estradiol benzoate (Sigma, St Louis, Mo., USA) for 5 days/week during three weeks time. Control mice received injections of vehicle oil (olive oil, Apoteksbolaget, Göteborg, Sweden).
Ovariectomized (ovx) mice, lacking one or both of the two known ERs, were given estrogen and the effects on gonadal fat was studied. The effects of estrogen in mice with both ERα and ERβ inactivated (DERKO) were compared with the effects of estrogen in wild type (WT) mice.
In Table 2, the left part describes the effects of estrogen on fat in ovx wild type (WT) and DERKO mice. Three months old ovx mice were treated for three weeks with 2.3 μg/mouse/day of 17β-estradiol 5 days/week or olive oil as control (=vehicle). n=7 for WT vehicle, n=7 for WT estrogen, n=7 for DERKO vehicle, n=8 for DERKO estrogen. Values are given as means±SEM and expressed as % increase over vehicle treated animal. **=p<0.01 compared with vehicle treated mice. ++=p<0.01 effect of estrogen in DERKO compared with the effect of estrogen in WT, Student t-test. The right part of Table 2 describes the calculation of estrogen receptor α/β dependent and independent effects of estrogen. The effects of estrogen in WT and DERKO mice, as described in the left part of the table, were used for the calculation of the proportion of ERα/β dependent and independent effects of estrogen. The values are given as % of the total effect seen in WT mice.

[3] = calculated from effects in WT and DERKO mice, % of the total effect seen in WT mice

Oc1ccc2c(c1)CC[C@H](c1ccccc1)[C@@H]2c1ccc(OCCN2CCCC2)cc1 [lasofoxifene]
body weight [1]: decreased | food intake [1]: decreased | total serum cholesterol [1]: decreased

17β-estradiol benzoate [Estrogen]
ERα/β Dependent effect of estrogen on Fat Weight [2, 3]: 93% | ERα/β Independent effect of estrogen on Fat Weight [2, 3]: 7% | gonadal fat mass, BERKO mice ([2]; ovx BERKO mice, estrogen treatment, result in words (FIG. 6)): reduced; also recorded: hyperresponsiveness | gonadal fat mass, DERKO mice ([2]; ovx DERKO mice, estrogen treatment, result in words (FIG. 6)): not | Effect of Estrogen (%) on Fat Weight, DERKO ([2]; ovx DERKO mice, three months old, 2.3 μg/mouse/day s.c. 5 days/week for three weeks, mean±SEM, % increase over vehicle treated animal): −2.0 ± 5.2++ % | gonadal fat mass, WT mice ([2]; estrogen treatment, result in words (FIG. 6)): reduction of gonadal fat mass | gonadal fat mass, WT mice ([2]; estrogen treatment, result in words (FIG. 6), listed as estrogen): reduced
